In US20260083704A1, “LXR MODULATORS WITH BICYCLIC CORE MOIETY FOR TREATING DYSLIPIDEMIAS” (OrsoBio, Inc., priority 2022, published 2026) one finds EC50 data, which are given here for 38 molecules.

A value given as a limit tells only on which side of the number the result lay.

Assay [1] concerns the target T1, GST-LXRβ ligand-binding domain (Homo sapiens, UniProt P55055).
T1 construct: amino acids 156-461; NP009052; made in house; host or cells: E. coli
T1 sequence (P55055 156-460 limits assumed): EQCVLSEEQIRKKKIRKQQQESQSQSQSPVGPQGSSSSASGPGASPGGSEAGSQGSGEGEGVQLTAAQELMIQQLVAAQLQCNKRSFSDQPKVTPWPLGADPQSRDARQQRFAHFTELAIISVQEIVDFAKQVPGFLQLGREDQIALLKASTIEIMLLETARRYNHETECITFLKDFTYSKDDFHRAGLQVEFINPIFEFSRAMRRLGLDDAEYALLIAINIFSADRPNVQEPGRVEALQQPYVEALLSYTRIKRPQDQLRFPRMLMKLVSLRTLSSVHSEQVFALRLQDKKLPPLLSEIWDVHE
The assay can be described thus: TR-FRETβ activity assay (NCoA3 coactivator peptide recruitment). The format is biochemical. The settings on record: 1 μM 24(S)-25-epoxycholesterol prestimulation. Put shortly: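 E. coli-expressed GST-LXRβ LBD (aa 156-461, 76 nM) with biotinylated NCoA3 peptide (400 nM) in Tris/HCl pH 6.8 containing 1 μM 24(S)-25-epoxycholesterol agonist. Compounds tested at 50 μM down to 0.002 μM in triplicate. TR-FRET (Tb cryptate/XL665, ex 340, em 615/665 nm) read after 1 h at 4° C.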

Another assay concerns the target T2, LXRβ (Homo sapiens, UniProt P55055).
T2 sequence (P55055 1-460): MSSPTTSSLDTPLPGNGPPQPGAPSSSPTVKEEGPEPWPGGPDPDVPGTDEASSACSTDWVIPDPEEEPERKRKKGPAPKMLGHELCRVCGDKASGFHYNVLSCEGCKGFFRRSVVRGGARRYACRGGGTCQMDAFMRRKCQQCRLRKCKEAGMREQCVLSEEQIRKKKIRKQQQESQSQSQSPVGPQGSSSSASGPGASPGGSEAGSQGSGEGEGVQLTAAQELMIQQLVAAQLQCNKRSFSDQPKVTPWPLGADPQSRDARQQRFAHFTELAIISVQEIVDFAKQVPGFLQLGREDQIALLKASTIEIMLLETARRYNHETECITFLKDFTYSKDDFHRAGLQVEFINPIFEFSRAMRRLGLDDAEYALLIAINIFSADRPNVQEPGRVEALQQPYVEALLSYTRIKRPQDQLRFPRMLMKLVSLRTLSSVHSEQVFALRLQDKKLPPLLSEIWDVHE
The assay can be described thus: LXR Gal4 reporter transient transfection assay (mammalian two-hybrid, HEK293), LXRβ. The format is cell-based. Set-up: LXRβ (amino acids 156-461); expressed in transfected cells; host or cells: HEK293. Particulars: full length (FL) LXRβ, HEK293; read-out: FL-M2H Gal4β. In outline:
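HEK293 cells transiently co-transfected with full-length or LBD LXRα/LXRβ fused to NFkB activation domain, GAL4-DBD-fused SRC1 or NCoR cofactor domain, GAL4-responsive firefly luciferase reporter and Renilla control. Compound added 4 h post-transfection (≤0.2% DMSO), incubated 16 h; firefly and Renilla luminescence read sequentially.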

Take `O=C(O)C1CC1c1cccc(-c2c(-c3c(Cl)cccc3Cl)c3cc(F)ccc3n2S(=O)(=O)c2ccc(C(F)F)cc2)c1` (stereo not shown) [11/69]: the EC50 (in assay [1]; on LXRβ) was under 0.1 µM each time.

As to `Cc1ccc(S(=O)(=O)n2c(-c3cccc(-c4cc(F)c(C(=O)O)cc4Cl)c3)c(-c3ccsc3C#N)c3cc(F)ccc32)cc1` [12/2], the EC50 in assay [1] is 0.1 to 1 µM; at LXRβ, under 0.1 µM.

Turning to `N#Cc1sccc1-c1c(-c2cccc(-c3cc(F)c(C(=O)O)cc3Cl)c2)n(S(=O)(=O)c2ccc(CF)cc2)c2ccc(F)cc12` [11/7], the EC50 (in assay [1]; on LXRβ) was under 0.1 µM throughout.

`CC(O)(C(=O)O)c1ccc(-c2cccc(-c3c(-c4c(C#N)cccc4C#N)c4cc(F)ccc4n3S(=O)(=O)c3ccc(C(F)F)cc3)c2)cc1` (stereo not shown) [11/59]: the EC50 (in assay [1]; on LXRβ) was under 0.1 µM in each case.

Consider `Cc1ccc(S(=O)(=O)n2c(-c3cccc(N4CC[C@@H](C(=O)O)C[C@H]4C)c3)c(-c3ccsc3C#N)c3cc(F)ccc32)cc1` [5/9], for which the EC50 was 0.1 to 1 µM in assay [1] and under 0.1 µM on LXRβ.

Turning to `Cc1cccc(C)c1-c1c(-c2cccc(-c3ccc(C(=O)O)cc3Cl)c2)n(S(=O)(=O)c2ccc(C(F)F)cc2)c2ccc(F)cc12` [11/14], the EC50 (in assay [1]; at LXRβ) was under 0.1 µM each time.

As for `Cc1ccc(S(=O)(=O)n2c(-c3cccc(-c4ccc(C(=O)NS(C)(=O)=O)cc4Cl)c3)c(-c3ccsc3C#N)c3cc(F)ccc32)cc1` [32/4], the EC50 (in assay [1]; on LXRβ) was under 0.1 µM in each case.

Consider `O=C(O)c1ccc(-c2cccc(-c3c(-c4ncccc4N4CC(O)C4)c4cc(F)ccc4n3S(=O)(=O)c3ccc(C(F)F)cc3)c2)c(Cl)c1` [5/10], for which the EC50 fell in the range of 1 to 10 µM in assay [1] and 0.1 to 1 µM on LXRβ.

`O=C(O)c1ccc(-c2cccc(-c3c(-c4ccsc4C(F)F)c4cc(F)ccc4n3S(=O)(=O)c3ccc(Cl)cc3)c2)c(Cl)c1` [11/21]: the EC50 (in assay [1]; at LXRβ) was under 0.1 µM throughout.

Take `Cc1n[nH]c(C)c1-c1c(-c2cccc(-c3ccc(C(=O)O)cc3Cl)c2)n(S(=O)(=O)c2ccc(C(F)F)cc2)c2ccc(F)cc12` [11/24]: the EC50 (in assay [1]; on LXRβ) was 0.1 to 1 µM in each case.

Turning to `Cc1ccc(S(=O)(=O)n2c(-c3cccc(N4CCC(C)(C(=O)O)CC4)c3)c(-c3ccsc3C#N)c3cc(F)ccc32)cc1` [3/50], the EC50 in assay [1] is 0.1 to 1 µM; at LXRβ, under 0.1 µM.

As for `COc1cc(F)cc2c(-c3ccsc3C#N)c(-c3cccc(-c4ccc(C(=O)O)cc4)c3)n(S(=O)(=O)c3ccc(C)cc3)c12` [3/53], the EC50 (in assay [1]; on LXRβ) was under 0.1 µM throughout.

On to `Cn1cccc(-c2c(-c3cccc(-c4ccc(C(=O)O)cc4Cl)c3)n(S(=O)(=O)c3ccc(C(F)F)cc3)c3ccc(F)cc23)c1=O` [11/47], for which the EC50 (in assay [1]; on LXRβ) was 0.1 to 1 µM each time.

With `O=C(NCCS(=O)(=O)O)C1CC1c1cccc(-c2c(-c3c(Cl)cccc3Cl)c3cc(F)ccc3n2S(=O)(=O)c2ccc(C(F)F)cc2)c1` (stereo not shown) [10/4], the EC50 (in assay [1]; on LXRβ) was under 0.1 µM in each case.

As for `N#Cc1cccc(C#N)c1-c1c(-c2cccc([C@H]3CC[C@@H](C(=O)O)CC3)c2)n(S(=O)(=O)c2ccc(C(F)F)cc2)c2ccc(F)cc12` [11/61], the EC50 in assay [1] is 0.1 to 1 µM; on LXRβ, under 0.1 µM.

For `N#Cc1ccccc1-c1c(-c2cccc(-c3ccc(C(=O)O)c(O)c3Cl)c2)n(S(=O)(=O)c2ccc(C(F)F)cc2)c2ccc(F)cc12` [11/32], the EC50 (in assay [1]; at LXRβ) was under 0.1 µM throughout.

With `COc1cc(-c2cccc(-c3c(-c4ccsc4C#N)c4cc(F)ccc4n3S(=O)(=O)c3ccc(C)cc3)c2)c(Cl)cc1C(=O)O` [12/4], the EC50 in assay [1] is 0.1 to 1 µM; on LXRβ it was under 0.1 µM.

`Cc1ccc(S(=O)(=O)n2c(-c3cccc(N4CC(C)(C(=O)O)C4)c3)c(-c3ccsc3C#N)c3cc(F)ccc32)cc1` [3/37]: the EC50 in assay [1] was 0.1 to 1 µM; on LXRβ it was under 0.1 µM.

For the molecule `N#Cc1sccc1-c1c(-c2cccc(-c3ccc(C(=O)O)cc3Cl)c2)n(S(=O)(=O)c2ccc(Cl)cc2)c2ccc(F)cc12` [3/57], the EC50 was 0.1 to 1 µM in assay [1] and under 0.1 µM at LXRβ.

Regarding `Cc1ccc(S(=O)(=O)n2c(-c3cccc(-c4ccc(C(=O)O)cc4Cl)c3)c(-c3c(C)cccc3C#N)c3cc(F)ccc32)cc1` [11/6], the EC50 (in assay [1]; on LXRβ) was under 0.1 µM in each case.

`Cc1ccc(S(=O)(=O)n2c(-c3cccc(N4CC(C(=O)O)C4)c3)c(-c3ccsc3CCO)c3cc(F)ccc32)cc1` [3/27]: the EC50 fell in the range of 1 to 10 µM in assay [1] and 0.1 to 1 µM at LXRβ.

As for `Cc1ccc(S(=O)(=O)n2c(-c3cccc(-c4ccc(C(C)(O)C(=O)O)cc4)c3)c(-c3ccsc3C#N)c3cc(F)ccc32)cc1` (stereo not shown) [3/55], the EC50 in assay [1] is 0.1 to 1 µM; on LXRβ it was under 0.1 µM.

In the case of `O=C(O)c1ccc(-c2cccc(-c3c(-c4ccccc4C4(F)CNC4)c4cc(F)ccc4n3S(=O)(=O)c3ccc(C(F)F)cc3)c2)c(Cl)c1` [3/61], the EC50 (in assay [1]; on LXRβ) was 0.1 to 1 µM each time.

For the molecule `O=C(O)c1ccc(-c2cccc(-c3c(-c4c(C(F)F)cccc4C(F)F)c4cc(F)ccc4n3S(=O)(=O)c3ccc(C(F)F)cc3)c2)c(Cl)c1` [11/15], the EC50 (in assay [1]; on LXRβ) was under 0.1 µM throughout.

On to `COc1cccnc1-c1c(-c2cccc(-c3ccc(C(=O)O)cc3Cl)c2)n(S(=O)(=O)c2ccc(C(F)F)cc2)c2ccc(F)cc12` [11/40], for which the EC50 in assay [1] was 0.1 to 1 µM; at LXRβ it was under 0.1 µM.

On to `N#Cc1ccc(S(=O)(=O)n2c(-c3cccc(-c4ccc(C(=O)O)cc4Cl)c3)c(-c3ccsc3C#N)c3cc(F)ccc32)cc1` [11/20], for which the EC50 was 0.1 to 1 µM in assay [1] and under 0.1 µM at LXRβ.

Consider `O=C(O)c1ccc(-c2cccc(-c3c(-c4ccsc4C(F)(F)F)c4cc(F)ccc4n3S(=O)(=O)c3ccc(C(F)F)cc3)c2)c(Cl)c1` [11/22], for which the EC50 (in assay [1]; at LXRβ) was under 0.1 µM each time.

Consider `N#Cc1cccc(C#N)c1-c1c(-c2cccc(-c3c(F)cc(OCC(=O)O)cc3F)c2)n(S(=O)(=O)c2ccc(C(F)F)cc2)c2ccc(F)cc12` [3/71], for which the EC50 (in assay [1]; on LXRβ) was under 0.1 µM throughout.

Take `Cc1ccc(S(=O)(=O)n2c(-c3cccc(N4CC(C(=O)O)C4)c3)c(-c3ccsc3/C=N/O)c3cc(F)ccc32)cc1` [3/7]: the EC50 in assay [1] is 1 to 10 µM; on LXRβ, under 0.1 µM.

Turning to `Cc1ccc(S(=O)(=O)n2c(-c3cccc(N4CC(C(=O)O)C4)c3)c(-c3sccc3C#N)c3cc(F)ccc32)cc1` [3/25], the EC50 was 1 to 10 µM in assay [1] and under 0.1 µM at LXRβ.

As to `O=C(O)c1ccc(-c2cccc(-c3c(-c4ccsc4C4COC4)c4cc(F)ccc4n3S(=O)(=O)c3ccc(C(F)F)cc3)c2)c(Cl)c1` [3/63], the EC50 (in assay [1]; at LXRβ) was under 0.1 µM in each case.

Consider `Cc1ccc(S(=O)(=O)n2c(-c3cccc(N4[C@@H]5CC[C@H]4C[C@@H](C(=O)O)C5)c3)c(-c3ccsc3C#N)c3cc(F)ccc32)cc1` [3/58], for which the EC50 in assay [1] was 1 to 10 µM; on LXRβ it was under 0.1 µM.

With `Cc1ccc(S(=O)(=O)n2c(-c3cccc(-c4ccc(C(=O)O)cc4)c3)c(-c3ccsc3C#N)c3cc(F)cc(O)c32)cc1` [3/54], the EC50 is 0.1 to 1 µM in assay [1] and under 0.1 µM at LXRβ.

`N#Cc1cccc(C#N)c1-c1c(-c2cccc(C34CCC(C(=O)O)(CC3)CC4)c2)n(S(=O)(=O)c2ccc(C(F)F)cc2)c2ccc(F)cc12` [11/58]: the EC50 (in assay [1]; at LXRβ) was under 0.1 µM throughout.

For `Cc1ccc(S(=O)(=O)n2c(-c3cccc(-c4ccc(C(=O)O)nc4)c3)c(-c3ccsc3C#N)c3cc(F)ccc32)cc1` [3/47], the EC50 in assay [1] was 0.1 to 1 µM; at LXRβ it was under 0.1 µM.

For the molecule `N#Cc1cccc(C#N)c1-c1c(-c2cccc(-c3ccc(C(=O)O)cc3F)c2)n(S(=O)(=O)C2CCC(C(F)(F)F)CC2)c2ccc(F)cc12` (stereo not shown) [11/64], the EC50 is 0.1 to 1 µM in assay [1] and under 0.1 µM at LXRβ.

For `N#Cc1cccc(C#N)c1-c1c(-c2cccc(C3CC3C(=O)O)c2)n(S(=O)(=O)c2ccc(C(F)F)cc2)c2ccc(F)cc12` (stereo not shown) [3/68], the EC50 in assay [1] was 0.1 to 1 µM; on LXRβ, under 0.1 µM.

For the molecule `N#Cc1sccc1-c1c(-c2cccc(C3CC3C(=O)NO)c2)n(S(=O)(=O)c2ccc(Cl)cc2)c2ccccc12` (stereo not shown) [6/1], the EC50 was 0.1 to 1 µM in assay [1] and under 0.1 µM at LXRβ.
